Test results taken from paper PMC9645260, “Small-molecule inhibitors of P-Rex guanine-nucleotide exchange factors” (Small GTPases, 2022).

How the values were obtained:
DOCK10 (DHR2) = biological target: T1, DOCK10 (DHR2) (Homo sapiens, UniProt Q96BY6); experiment: Liposome-based GEF activity assay, DOCK10; type: biochemical; conditions: 10 µM, 765 nM DOCK10 DHR2
T1 construct: The DOCK10 DHR2 domain, produced in and purified from bacteria; host or cells: bacteria
T1 sequence (Q96BY6 1690-2150 limits assumed): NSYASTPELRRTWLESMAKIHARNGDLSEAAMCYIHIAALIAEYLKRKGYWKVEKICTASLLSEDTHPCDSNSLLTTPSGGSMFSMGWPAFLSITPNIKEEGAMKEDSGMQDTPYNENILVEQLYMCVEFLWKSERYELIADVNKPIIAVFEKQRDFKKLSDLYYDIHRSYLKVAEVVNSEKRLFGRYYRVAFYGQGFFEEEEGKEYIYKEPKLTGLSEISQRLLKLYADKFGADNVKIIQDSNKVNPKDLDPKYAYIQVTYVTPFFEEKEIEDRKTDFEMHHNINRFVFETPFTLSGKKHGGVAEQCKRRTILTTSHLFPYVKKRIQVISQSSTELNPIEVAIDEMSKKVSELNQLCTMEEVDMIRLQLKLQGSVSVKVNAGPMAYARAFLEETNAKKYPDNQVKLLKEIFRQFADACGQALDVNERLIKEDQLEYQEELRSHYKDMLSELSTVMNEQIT
Procedure: Full-length N-terminally EE-tagged P-Rex1, P-Rex2, the P-Rex1 DH and DHPH domains and the P-Rex2 DH domain were produced in Sf9 cells using baculoviral transduction and were purified using anti-EE beads, as previously described. Briefly, frozen pellets from 500 ml of Sf9 culture infected with P-Rex expressing high-titre baculovirus were resuspended in ice-cold lysis Sf9-cell lysis buffer 2 (1x PBS, 1% Triton X-100, 5 mM EGTA, 1 mM EDTA, 25 mM NaF, 20 mM β-glycerophosphate, 1 mM DTT, 100 µM PMSF, 10 μg/ml each of leupeptin, pepstatin A, aprotinin and antipain) for 5 min and then ultracentrifuged at 118,000 × g for 1 h at 4°C. Supernatants were incubated with pre-washed anti-EE beads for 90 min on ice with end-over-end rotation. […] Protein concentration and purity were determined by coomassie staining of SDS-PAGE gels. […]
Liposome-based GEF activity assays were carried out essentially as described, except that GEFs were incubated with inhibitor compounds prior to the assay. […] Small GTPases were isolated using anti-EE antibody-coupled Sepharose beads or glutathione Sepharose beads, as appropriate, by incubation on ice for 90 min with end-over-end rotation, four washes in ice-cold wash buffer and resuspension of beads in Ultima Gold scintillation fluid (Perkin Elmer). ^35S-GTPγS incorporation was assessed by scintillation counting (Packard 1600TR, Liquid Scintillation Analyser).

P-Rex1 DHPH domain = biological target: T2, P-Rex1 DHPH domain (Homo sapiens, UniProt Q8TCU6); experiment: Mant-GTP GEF activity assay; type: biochemical
T2 construct: 100 nM EE-P-Rex1 DHPH domains (PREX-in1, compounds 2–10 and 30–128); made in house; host or cells: Sf9 cells (baculovirus)
Procedure: The mant-GTP GEF activity assay measures the binding of fluorescent 2’/3’-O-(N-Methyl-anthraniloyl)-guanosine-5’-triphosphate (mant)-GTP to Rac, making use of the spectroscopic differences between bound and free mant-GTP. P-Rex1 DHPH domain protein was diluted to 375 nM in exchange buffer (20 mM Tris, pH 7.5 RT, 50 mM NaCl, 200 mM KCl, 4 mM MgCl2, 50 μg/ml fatty-acid-free BSA). The inhibitors PREX-in1 or EHop-016 were diluted to various concentrations in exchange buffer containing 15% DMSO. 4.4 µl P-Rex1 DHPH domain protein were incubated with 1.1 µl PREX-in1 or EHop-016 for 30 min at 30°C, or were mock treated with 1.1 µl vehicle (15% DMSO). 5 μl of the P-Rex1 DHPH / inhibitor mix was then added to 10 µl of a 1.5x reaction mix containing 225 nM bacteria-derived EE-Rac1, 7.5 µM mant-GTP and 15 µM GTP in exchange buffer in a 96-well plate. Final assay concentrations were 150 nM EE-Rac1, 100 nM P-Rex1 DHPH domain, 5 μM mant-GTP, 10 µM GTP, […] fatty-acid-free BSA, 1% DMSO, and the indicated concentrations of inhibitor. Mant-GTP fluorescence was measured in real time in a PHERAstar 384-well fluorescence plate reader at 25°C for 40 min using 360 nm excitation and 440 nm emission.

T2 sequence (Q8TCU6 49-392 limits assumed): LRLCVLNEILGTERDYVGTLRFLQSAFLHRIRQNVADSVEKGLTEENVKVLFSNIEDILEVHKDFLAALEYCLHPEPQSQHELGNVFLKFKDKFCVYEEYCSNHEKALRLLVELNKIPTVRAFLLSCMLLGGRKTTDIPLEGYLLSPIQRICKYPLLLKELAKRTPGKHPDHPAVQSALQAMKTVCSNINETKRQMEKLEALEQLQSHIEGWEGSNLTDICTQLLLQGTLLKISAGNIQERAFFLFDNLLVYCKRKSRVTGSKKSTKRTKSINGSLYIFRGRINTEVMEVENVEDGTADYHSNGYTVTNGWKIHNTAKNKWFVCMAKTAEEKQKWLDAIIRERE

COc1ccc(-c2[nH]nc3c2C(c2ccc(-c4ccc(Cl)cc4)o2)C(C#N)=C(N)O3)cc1 (stereo not drawn) [PREX-in1, 6-amino-4-[5-(4-chlorophenyl)-2-furyl]-3-(4-methoxyphenyl)-2,4-dihydropyrano[2,3-c]pyrazole-5-carbonitrile]
effect on GEF activity of DOCK10 (DOCK10 (DHR2)): none of the other GEFs were affected
IC50 (P-Rex1 DHPH domain; 150 nM EE-Rac1, 100 nM P-Rex1 DHPH, read-out: IC50 of inhibition of P-Rex1 DHPH in mant-GTP assay): ~10 µM
effect on P-Rex1 DHPH-dependent mant-GTP loading of Rac1 (P-Rex1 DHPH domain; 10 µM): inhibited
